Where “and” joins values, the source holds several entries; their conditions need not be identical. Equal entries are not always repeated.
How the values were obtained:
SARS-CoV-2 [1] = experiment: microbe, parasite or virus in culture; type: functional, organism-based, Chlorocebus sabaeus, Vero C1008; conditions: Severe acute respiratory syndrome coronavirus 2, Vero C1008, 48 h
SARS-CoV-2 [2] = conditions: vero c1008
in vitro = conditions: chlorocebus sabaeus, Vero E6 (Vero C1008) cells
SARS-CoV-2 [3] = experiment: microbe, parasite or virus in culture; conditions: Severe acute respiratory syndrome coronavirus 2, Vero C1008, 48 h

Molecule	IC50 (SARS-CoV-2 [1]; read-out: IC50)	IC50 (SARS-CoV-2 [1]; read-out: pIC50 (converted))	IC50 (SARS-CoV-2 [2])	CC50 at 48 h (in vitro; CC50)	CC50 at 48 h (in vitro; pCC50)	pIC50 (SARS-CoV-2 [2])	IC50 (SARS-CoV-2 [3])	IC50 (SARS-CoV-2 [3]; read-out: pIC50 (converted))
CCCCCCCCNC(C)C(O)c1ccc(SC(C)C)cc1 (stereo not given) [SULOCTIDIL]	> 100 µM	> 100 µM	> 100 µM	3.27 µM	3.24 µM			
CC1(C)[C@H](C(=O)[O-])N2C(=O)C[C@H]2S1(=O)=O.[Na+] [SULBACTAM SODIUM]						< 4.7		
O=[N+]([O-])c1ccc(Cl)c([N+](=O)[O-])c1 [DINITROCHLOROBENZENE]			> 20 µM			< 4.7		
NYSTATIN			> 20 µM			< 4.7		
ATSM COPPER (II)			> 20 µM			< 4.7		
O=c1cnn([C@@H]2O[C@H](CO)[C@@H](O)[C@H]2O)c(=O)[nH]1 [6-AZAURIDINE]			> 100 µM					
CNCC(O)C(O)C(O)C(O)CO.Cc1c(Nc2ncccc2C(=O)O)cccc1C(F)(F)F						< 4.7		
CC(C)(NC(=O)O[C@@H]1CN2CCC1CC2)c1csc(-c2ccc(F)cc2)n1			> 20 µM			< 4.7		
CN(C)c1ccc(O)c2c1C[C@H]1C[C@H]3[C@H](N(C)C)C(O)=C(C(N)=O)C(=O)[C@@]3(O)C(O)=C1C2=O.Cl [MINOCYCLINE HYDROCHLORIDE]						< 4.7		
O=S(=O)(O)c1cc(O)ccc1O [DOBESILIC ACID]						< 4.7		
O=C(O)Cc1cn(-c2ccccc2)nc1-c1ccc(Cl)cc1.O=C(O)Cc1cn(-c2ccccc2)nc1-c1ccc(Cl)cc1.[Ca+2]						< 4.7		
RAUWOLFIA SERPENTINA			> 20 µM			< 4.7		
CC(Cc1ccccc1)NCCC(c1ccccc1)c1ccccc1 (stereo not given) [PRENYLAMINE]	> 100 µM	> 100 µM	8.51 µM and > 20 µM	10.7 µM	10.7 µM	5.07 and < 4.7		
O=C(O)c1cc(=O)c2c(OCC(O)COc3cccc4oc(C(=O)O)cc(=O)c34)cccc2o1.[NaH]						< 4.7		
CCn1cc(-c2ccnc3[nH]c(-c4cccc(CN(C)C)c4)cc23)c(-c2ccc(NC(=O)N(C)C)cc2)n1 [GSK-1070916]	> 100 µM	> 100 µM		9.33 µM	9.33 µM		> 100 µM	> 100 µM
COc1ccc2c(c1)N(CC(C)CN(C)C)c1ccccc1S2 (stereo not given)	> 100 µM	> 100 µM		22.9 µM	22.9 µM		> 100 µM	> 100 µM
COC(=O)C1=C(C)NC(C)=C(C(=O)OC2CCCN(Cc3ccccc3)C2)C1c1cccc([N+](=O)[O-])c1 (stereo not given) [BENIDIPINE]	> 100 µM	> 100 µM	> 100 µM	14.8 µM	14.8 µM			
O=C(Nc1ccccc1)OCC(CN1CCCCC1)OC(=O)Nc1ccccc1 (stereo not given) [DIPERODON]	> 25.1 µM	> 25.1 µM		> 25.1 µM	> 25.1 µM		15.1 µM	15.1 µM
Nc1nc2nn[nH]c2c(=O)[nH]1 [8-AZAGUANINE]	> 50.1 µM	> 50.1 µM		23.7 µM	23.4 µM		> 50.1 µM	> 50.1 µM
NC(=O)C1CN(CCCCC(c2ccc(F)cc2)c2ccc(F)cc2)CCN1CC(=O)Nc1c(Cl)cc(N)cc1Cl (stereo not given) [DRAFLAZINE]	> 100 µM	> 100 µM		9.66 µM	9.55 µM		> 100 µM	> 100 µM
CCCCN(CCCC)CCC(O)c1cc2c(Cl)cc(Cl)cc2c2cc(C(F)(F)F)ccc12 (stereo not given) [HALOFANTRINE]	~9.12 µM	~9.12 µM		11.5 µM	11.5 µM		9.55 µM	9.55 µM
CO[C@H]1CC[C@H](n2c([C@H]3CCCC(=O)N3c3ccc(F)c(F)c3)nc3cc(-c4c(C)noc4C)ccc32)CC1 (relative stereo)	> 100 µM	> 100 µM		9.12 µM	9.12 µM		> 100 µM	> 100 µM

— ChEMBL document CHEMBL4651402, “Screening of ~5500 FDA-approved drugs and clinical candidates for anti-SARS-CoV-2 activity” (2021)
